According to patent US20070128217A1 (priority 2003, published 2007):

Assays:
[1] = system: antibodies in sera from SARS patients (sera 1a, 1b, 2, 6, 37, 62, London, SARS-yellow, SARS-green); assay type: binding, human; parameters: Binding of serum 6 to linear peptides of protein X1 of SARS-CoV Urbani / Binding of serum 37 to linear peptides of protein X1 of SARS-CoV Urbani / Binding of serum 6 to looped/cyclic peptide (PEPSCAN-ELISA) / Binding of serum 37 to looped/cyclic peptide (PEPSCAN-ELISA) / Binding of serum 37 to looped/cyclic peptides of protein X1 of SARS-CoV Urbani / Binding of serum 6 to linear peptides of protein X2 / Binding of serum 37 to linear peptides of protein X2 / Binding of serum 37 to looped/cyclic peptides of protein X2 of SARS-CoV Urbani / Binding of serum 6 to linear peptides of protein M of SARS-CoV Urbani / Binding of serum 37 to linear peptides of protein M of SARS-CoV Urbani / Binding of serum 6 to looped/cyclic peptides of protein M of SARS-CoV Urbani / Binding of serum 37 to looped/cyclic peptides of protein M of SARS-CoV Urbani / Binding of serum 6 to linear peptides of protein X3 of SARS-CoV Urbani / Binding of serum 37 to linear peptides of protein X3 of SARS-CoV Urbani / Binding of serum 37 to looped/cyclic peptides of protein X3 of SARS-CoV Urbani / Binding of serum 6 to linear peptides of protein X4 of SARS-CoV Urbani / Binding of serum 37 to linear peptides of protein X4 of SARS-CoV Urbani / Binding of serum 37 to looped/cyclic peptides of protein X4 of SARS-CoV Urbani / Binding of serum 6 to linear peptides of protein X5 of SARS-CoV Urbani / Binding of serum 37 to linear peptides of protein X5 of SARS-CoV Urbani / Binding of serum 37 to looped/cyclic peptides of protein X5 of SARS-CoV Urbani / Binding of serum 6 to linear peptides of protein N of SARS-CoV Urbani / Binding of serum 37 to linear peptides of protein N of SARS-CoV Urbani / Binding of serum 6 to linear peptide (PEPSCAN-ELISA) / Binding of serum 1a to looped/cyclic peptides of protein N of SARS-CoV Urbani / Binding of serum 1b to looped/cyclic peptides of protein N of SARS-CoV Urbani / Binding of serum 2 to looped/cyclic peptides of protein N of SARS-CoV Urbani / Binding of serum 6 to looped/cyclic peptides of protein N of SARS-CoV Urbani / Binding of serum 37 to looped/cyclic peptides of protein N of SARS-CoV Urbani / Binding of serum 62 to looped/cyclic peptides of protein N of SARS-CoV Urbani / Binding of serum London to looped/cyclic peptides of protein N of SARS-CoV Urbani / Binding of serum SARS-green to looped/cyclic peptides of protein N of SARS-CoV Urbani: unit not given here
[2] = system: control sera (pooled serum of ten healthy LUMC hospital workers; commercial negative donor pooled serum from the Dutch bloodbank); assay type: binding, human; parameters: Binding of Control serum LUMC to linear peptides / Binding of Control serum Blood-bank to linear peptides / Binding of Control serum LUMC to looped peptides / Binding of Control Serum Blood-Bank to Looped peptides / Binding of Control serum LUMC to linear peptides of the protein M of SARS-CoV Urbani / Binding of Control serum Blood-bank to linear peptides of the protein M of SARS-CoV Urbani / Binding of Control serum LUMC to looped peptides of the protein M of SARS-CoV Urbani / Binding of Control Serum Blood-Bank to Looped peptides of the protein M of SARS-CoV Urbani: unit not given here
[3] = system: recombinant human anti-SARS-CoV antibody 03-018; assay type: binding; parameters: Binding of antibody 03-018 to linear peptides of the N protein of SARS-CoV Urbani / Binding of antibody 03-018 to looped/cyclic peptides of the N protein of SARS-CoV Urbani: unit not given here
[4] = system: rabbit serum obtained by immunizing a rabbit with the SARS-CoV strain Frankfurt 1; assay type: binding; parameters: Binding of a rabbit serum to linear peptides / Binding of a rabbit serum to looped peptides / Rabbit serum linear peptides / Rabbit serum looped peptides / Binding of a rabbit serum to linear peptides of protein N of SARS-CoV Urbani (Rabbit serum linear peptides) / Binding of a rabbit serum to looped/cyclic peptides of protein N of SARS-CoV Urbani (Rabbit serum looped peptides): unit not given here

Sequence	Binding of serum 1a to linear peptides of protein N of SARS-CoV Urbani [1]	Binding of serum 1a to looped/cyclic peptides of protein N of SARS-CoV Urbani [1]	Binding of serum 1b to linear peptides of protein N of SARS-CoV Urbani [1]	Binding of serum 1b to looped/cyclic peptides of protein N of SARS-CoV Urbani [1]	Binding of serum 2 to linear peptides of protein N of SARS-CoV Urbani [1]	Binding of serum 2 to looped/cyclic peptides of protein N of SARS-CoV Urbani [1]	Binding of serum 6 to linear peptides of protein N of SARS-CoV Urbani [1]	Binding of serum 6 to looped/cyclic peptides of protein N of SARS-CoV Urbani [1]	Binding of serum 37 to linear peptides of protein N of SARS-CoV Urbani [1]	Binding of serum 37 to looped/cyclic peptides of protein N of SARS-CoV Urbani [1]	Binding of serum 62 to linear peptides of protein N of SARS-CoV Urbani [1]	Binding of serum 62 to looped/cyclic peptides of protein N of SARS-CoV Urbani [1]	Binding of serum London to linear peptides of protein N of SARS-CoV Urbani [1]	Binding of serum London to looped/cyclic peptides of protein N of SARS-CoV Urbani [1]	Binding of serum SARS-green to looped/cyclic peptides of protein N of SARS-CoV Urbani [1]	Binding of serum SARS-yellow to looped/cyclic peptides of protein N of SARS-CoV Urbani [1]	Binding of antibody 03-018 to linear peptides of the N protein of SARS-CoV Urbani [3]	Binding of antibody 03-018 to looped/cyclic peptides of the N protein of SARS-CoV Urbani [3]	Binding of a rabbit serum to linear peptides of protein N of SARS-CoV Urbani (Rabbit serum linear peptides) [4]	Binding of a rabbit serum to looped/cyclic peptides of protein N of SARS-CoV Urbani (Rabbit serum looped peptides) [4]	other results
KEELRFPRGQGVPIN	0.2	0.4	0.1	0.3	0.3	0.5	0.2	0.4	0.7	0.7	0.6	0.5	0.5	0.7	0.4	0.6	0.1	0.3	0.1	0.6	Binding of serum SARS-green to linear peptides of protein N of SARS-CoV Urbani [1]: 0.5; Binding of serum SARS-yellow to linear peptides of protein N of SARS-CoV Urbani [1]: 0.5; Binding of Control Serum Blood-Bank to Looped peptides [2]: 0.7; Binding of Control serum Blood-bank to linear peptides [2]: 0.8; Binding of Control serum LUMC to linear peptides [2]: 0.7; Binding of Control serum LUMC to looped peptides [2]: 0.7
KELSPRWYFYYLGTG	0.2	0.4	0.1	0.2	0.1	0.4	0.1	0.3	0.4	0.7	0.4	0.5	0.4	0.4	0.4	0.3	0.1	0.3	0.0	0.4	Binding of serum SARS-green to linear peptides of protein N of SARS-CoV Urbani [1]: 0.1; Binding of serum SARS-yellow to linear peptides of protein N of SARS-CoV Urbani [1]: 0.5; Binding of Control Serum Blood-Bank to Looped peptides [2]: 0.7; Binding of Control serum Blood-bank to linear peptides [2]: 0.4; Binding of Control serum LUMC to linear peptides [2]: 0.4; Binding of Control serum LUMC to looped peptides [2]: 0.6
KGFYAEGSRGGSQAS	–	0.3	–	0.2	–	0.3	–	0.2	–	0.4	–	0.3	–	0.3	0.1	0.1	0.1	0.2	0.1	0.1	Binding of serum 1a to linear peptide (PEPSCAN-ELISA) [1]: 0.2; Binding of serum 1b to linear peptide (PEPSCAN-ELISA) [1]: 0.1; Binding of serum 2 to linear peptide (PEPSCAN-ELISA) [1]: 0.2; Binding of serum 6 to linear peptide (PEPSCAN-ELISA) [1]: 0.2; Binding of serum 37 to linear peptide (PEPSCAN-ELISA) [1]: 0.6; Binding of serum 62 to linear peptide (PEPSCAN-ELISA) [1]: 0.5; Binding of serum London to linear peptide (PEPSCAN-ELISA) [1]: 0.4; Binding of serum SARS-green to linear peptide (PEPSCAN-ELISA) [1]: 0.2; Binding of serum SARS-yellow to linear peptide (PEPSCAN-ELISA) [1]: 0.5; Binding of Control Serum Blood-Bank to Looped peptides [2]: 0.5; Binding of Control serum Blood-bank to linear peptides [2]: 0.7; Binding of Control serum LUMC to linear peptides [2]: 0.5; Binding of Control serum LUMC to looped peptides [2]: 0.4
KHIDAYKTFPPTEPK	0.3	0.2	0.1	0.1	0.3	0.2	0.2	0.1	0.7	0.4	0.8	0.3	0.5	0.3	0.1	0.1	0.1	0.2	0.1	0.2	Binding of serum SARS-green to linear peptides of protein N of SARS-CoV Urbani [1]: 0.5; Binding of serum SARS-yellow to linear peptides of protein N of SARS-CoV Urbani [1]: 0.8; Control Serum Blood-Bank Looped peptides [2]: 0.3; Control serum Blood-bank linear peptides [2]: 0.8; Control serum LUMC linear peptides [2]: 0.7; Control serum LUMC looped peptides [2]: 0.3
